Series [1] relates to HLA-A2+ p53+ UMUC-14 cells. The experiment in a line: In vitro 24-hour incubation of UMUC-14 cells with chemotherapeutic agents. Type of series: cell-based, human. As to conditions: G0/G1 cell cycle arrest. As to the method: The anti-tumor efficacy of multi-dose administration of […] (ALT-801), alone and in combination with gemcitabine and cisplatin, was evaluated on primary tumor growth in athymic nude mice bearing human bladder UMUC-14 and KU7P cells. Treatment with a gemcitabine and cisplatin regimen is the standard-of-care for patients with metastatic bladder cancer. To assess the in vitro effects of these chemotherapeutic agents on human bladder cancer cells, HLA-A2^+ p53^+ UMUC-14 cells were treated with gemcitabine and cisplatin, alone and in combination.

Another series has as its system KU7P cells. The experiment in a line: WST-1 cell proliferation assay, KU7P. The format is cell-based, human. The following applies: WST-1 reagent, 24 hours, read-out: IC50, inhibition of KU7P cell growth. As to the method:
(§1) The sensitivity of the human bladder tumor cell lines to gemcitabine and cisplatin was further assessed using a cell proliferation assay. UMUC-14 and KU7P cells were plated in media containing various amounts of gemcitabine and cisplatin and cell proliferation was determined using the WST-1 reagent 24 hours later.
(Formazan colour is commonly taken as a measure of viable cells.)

In the next series the test system is UMUC-14 cells. The experiment in a line: WST-1 cell proliferation assay, UMUC-14. Type of series: cell-based, human. As to conditions: WST-1 reagent, 24 hours, read-out: IC50, inhibition of UMUC-14 cell growth. How it is done:
as §1

The test system of series [2] is subcutaneous KU7P human bladder tumors. The series is described as follows: Subcutaneous KU7P xenograft, monotherapy. The following applies: Gem 40 mg/kg, MART-1scTCR/IL-2 2.19 mg/kg, ALT-801 1.6 mg/kg. Type of series: in vivo, nude mice.
Series [3] concerns subcutaneous MB49G tumors. The experiment in a line: Gemcitabine resistant subcutaneous MB49G tumor model. The format is in vivo, mice. The following applies: ALT-801 0.8 mg/kg (sub-optimal dose), gemcitabine 40 mg/kg. The text has this: As potent suppressors of various immune cell functions, MDSCs are potential therapeutic targets for anticancer treatment. For example, gemcitabine, a widely-used chemotherapeutic, can selectively eliminate MDSCs in tumor-bearing animals and enhance tumor-suppressive immune activity (Suzuki et al., Clin Cancer Res, 11: 6713-6721, 2005).

In the next series the test system is Gr1+CD11b+ MDSCs. The experiment in a line: Spleen Gr1+CD11b+ MDSCs after gemcitabine. Type of series: in vivo, C57BL/6 mice. As to conditions: 40 mg/kg i.v., three days after; untreated tumor-bearing 4.29 (±1.32), normal 1.19 (±0.25). How it is done:
Gemcitabine is one of the drugs in the standard combination chemotherapy for muscle invasive bladder cancer. It has been reported that gemcitabine reduces myeloid-derived suppressor cells (MDSCs) in tumor-bearing mice. In this report, we studied the effect of gemcitabine on MDSCs induced by MB49luc cells in mice. MB49luc tumor-bearing mice were treated intravenously with gemcitabine at 40 mg/kg. Three days after gemcitabine treatment, splenocytes were isolated and the percentage of Gr1^+CD11b^+ MDSCs was determined by flow cytometry. The MDSCs accounted for 1.19 (±0.25) percent of the splenocytes in normal control mice without MB49luc tumors. These MDSCs increased to 4.29 (±1.32) percent of splenocytes in MB49luc tumor-bearing mice.

The next series relates to MB49luc cells. The series is described as follows: Effect of IFN-γ on MB49luc cells, Annexin V flow cytometry. The following applies: 1 or 10 ng/mL. The format is cell-based, mouse. As to the method: In the second part of this study, the effect of IFN-γ on MB49luc cell growth was investigated. MB49luc cells (2×10^5/well) were cultured in RPMI-10 with IFN-γ at 1 or 10 ng/mL. The IFN-γ-treated MB49luc cells were harvested and stained with FITC-labeled Annexin V. The Annexin V positive apoptotic MB49luc cells were determined by flow cytometry.
A general note: Flow cytometry measures light scatter and fluorescence of single cells or particles in a stream.

pIC50: −log10 of the molar value. Where two headings read alike, the source gives them in different places.

Broadly, the pIC50 is the negative decadic logarithm of the IC50, by convention in mol/L. Regarding `N.N.[Cl][Pt][Cl]` [cisplatin], in series [1], the UMUC-14 cell proliferation entry was “dose dependent decrease”. The pIC50 is 5.85 in the series with KU7P cells and 5.04 in the series on UMUC-14 cells.
Consider `Nc1ccn([C@@H]2O[C@H](CO)[C@@H](O)C2(F)F)c(=O)n1` [gemcitabine], for which the UMUC-14 cell proliferation entry in series [1] is listed as “dose dependent decrease”. For the same molecule, the pIC50 with KU7P cells (Homo sapiens) is 7.30; in the series with UMUC-14 cells (Homo sapiens, UMUC14) it was 2.69. Further, in series [2], the “growth of subcutaneous KU7P tumors compared to PBS treated mice” value was “statistically significant decrease”. Besides, the “tumor growth / progression compared to PBS treated mice” value in series [3] is recorded as “did not significant differ”. Further, the “spleen Gr1+CD11b+ MDSCs as percent of splenocytes” value in the series on Gr1+CD11b+ MDSCs is 1.83 (±0.92) percent.
“IFN-γ: cytokine added to MB49luc cell cultures”: the “cytotoxicity against MB49luc cells (Annexin V positive apoptotic cells)” value in the series on MB49luc cells was “does not directly result in detectable cytotoxicity”.

(Values after patent publication US20150216937A1, “METHODS FOR TREATING NEOPLASIA” (Altor BioScience Corporation, priority 2012, published 2015).)
